Assay results: patent EP4623928A1, “GLP-1R ANTAGONISTS FOR THE TREATMENT OF CANCER” (Fiorina, Paolo, priority 2024, dated 2025)

Legend:
[1] = test system: mitogen-stimulated murine splenocytes; assay: IFN-γ ELISpot assay on anti-CD3/anti-CD28 stimulated splenocytes; format: cell-based, C57BL/6 mice; conditions: Exe-9 added to Exe-4, 0.1, 1 or 10 nM, 24 hours
Method: An ELISPOT assay was used to measure the number of IFN-γ-producing cells according to the manufacturer's protocol (BD Biosciences) as previously performed by our group (39). To test the role of GLP-1R-driven immunity on the anti-CD3/28 non-autoimmune specific response, 1×10^6 splenocytes isolated from C57BL/6 mice were cultured in a microwell plate (BD Biosciences) coated with IFN-y capture antibody (Ab) in the presence of the following soluble anti-CD3 and anti-CD28 at 0,5ug/ml for 24 hours. Exe-4 and/or Exe-4+Exe-9-39 at concentrations of 0.1, 1 or 10 nM were added to the culture. After 24 hours, bound secondary Ab was visualized using HRP-streptavidin and the AEC substrate kit (BD Biosciences). Spots were counted using an Immunospot analyzer (Cellular Technology Ltd., Cleveland, OH) and expressed as the number of cytokine-producing spots per 1×10^6 cells. After 24hours, ELISpot plates were developed and acquired on an ELISpot reader, as previously described.

Cardiac allografts = assay: Murine cardiac allotransplantation (BALB/c hearts into C57BL/6 mice); format: in vivo
Method: Cardiac allografts from BALB/c mice were transplanted intra-abdominally in C57BL/6 mice using microsurgical techniques as described (31). Rejection was determined as complete cessation of cardiac contractility and was confirmed by direct visualization. Transplanted mice were intraperitoneally injected according to the following protocols: 1) Exendin-4 (Exe-4) (Amylin Pharmaceuticals, San Diego, CA - USA) 0.2pg twice/day for two weeks after transplant; 2) Exe-4 0.2pg twice/day from the day before until two weeks after transplant; 3) Exe-4 2µg twice/day from the day before until two weeks after transplant; 4) Exe-4 2µg twice/day + Exendin-9-39 (Exe-9) (Sigma-Aldrich) 2µg twice/day from the day before until two weeks after transplant; 5) Exe-4 2µg twice/day from the day before until two weeks after transplant + Rapamycin 0.1mg/die for two weeks; 6) saline 0.5ml twice/day for two weeks.

CD4^+ and CD8^+ T cells = assay: Cell death and proliferation of CD4+ and CD8+ T cells in splenocytes activated with anti-CD3/anti-CD28 (FACS); format: cell-based, C57BL/6 mice
[2] = test system: MC38 colorectal cancer cells; assay: Colorectal tumour model (MC38 cells injected into the distal posterior rectum); format: in vivo, C57BL/6 mice
Method: Female C57BL/6 mice were anesthetized with 100 mg/kg of ketamine and 50 mg/kg of xylazine. Next, by using a 29-gauge syringe, 2×10^5 MC38 cells were injected submucosally into the distal posterior rectum in a final volume of […], as described previously (36, 37). MC38-injected mice were randomly assigned into 2 groups: (i) Exe-9-treated group (n=8), where all mice received an intraperitoneal injection of 2 µg of Exendin-9-39 (Exe-9) starting by Day1 for a total of 14 days; (ii) untreated-group (n=6), where all mice received an IP injection of PBS starting by day 1 and for a total of 14 days. Tumour growth was visually monitored daily. After animals' sacrifice, tumours were measured by a digital calliper measuring tumour length, width, and height and were weighted using a digital scale. Procedures involving mice wereb conformed to institutional guidelines in agreement with national and international law and were approved by the ethics committee by the Ministry of Health.

islet allografts = assay: Murine islet allotransplantation (BALB/c islets into STZ-treated C57BL/6 mice); format: in vivo
Method: Pancreatic islets from BALB/c mice were isolated by collagenase digestion and density gradient separation as previously described (33, 34). Subsequently, four to five hundred islets were inoculated under the renal capsule of each C57BL/6 recipient rendered diabetic with streptozotocin (STZ) (200 mg/kg, administered i.p. Sigma-Aldrich). Islet transplantation success was confirmed by glycaemia normalization. Rejection of islet allografts was defined as blood glucose levels >250 mg/dl for at least 2 consecutive days (35). Treatment modalities were the following: transplanted mice were intraperitoneally injected according to the following protocols: 1) Exendin-4 (Exe-4) (Amylin Pharmaceuticals, San Diego, CA -USA) 0.2pg twice/day for two weeks after transplant; 2) Exe-4 0.2pg twice/day from the day before until two weeks after transplant; 3) Exendin-4 2µg twice/day from the day before until two weeks after transplant; 4) Exendin-4 2µg twice/day + Exendin-9-39 (Exe-9) (Sigma-Aldrich) 2µg twice/day from the day before until two weeks after transplant; 5) Exendin-4 2µg twice/day from the day before until two weeks after transplant + Rapamycin 0.1mg/die for two weeks; 6) saline 0.5ml twice/day for two weeks. The follow-up of the transplanted mice was for 100 days.

[3] = co-administration Exe-4 2µg twice/day + Exe-9 2µg twice/day
[4] = splenic, Exe-9 co-administration with Exe-4
[5] = 2 µg of Exe-9 once a day for 14 days, vs untreated
[6] = Exe-9-treated group vs untreated

## Exendin-9-39 [Exe-9]
[1]
  effect of Exe-9 on the Exe-4-induced reduction of IFN-y producing cells: significantly hampered the overseen immunoregulatory effect of Exe-4
Cardiac allografts; [3]
  effect of Exe-9 on the beneficial effects of Exe-4 (heart allograft survival): partly abolished
Cardiac allografts; day-7 heart allograft, Exe-9 co-administration with Exe-4
  effect of Exe-9 on the Exe-4-induced decrease of graft infiltration: abolished
Cardiac allografts; [4]
  effect of Exe-9 on the Exe-4-induced decrease of CD4^+ and CD8^+ effector T cells: reverted
CD4^+ and CD8^+ T cells; Exe-9 added to Exe-4, anti-CD3/anti-CD28 activated splenocytes
  effect of Exe-9 on Exe-4-induced cell death: reduced the effect
CD4^+ and CD8^+ T cells; addition of antagonist Exe-9 to Exe-4, anti-CD3/CD28 Abs (Fig. 13D-E)
  percentages of proliferating (or cell trace positive) CD4^+ and CD8^+ T cells: No differences
[2]; 2 µg of Exe-9 once a day for 14 days, intraperitoneal, vs untreated (PBS)
  tumour size: significantly reduced
[2]; [5]
  colon length: no differences
  mesenteric lymph nodes volume: significantly reduced
  spleen weight: no differences
[2]; [6]
  CD3^+ and CD8^+ effector memory T cells within the spleen and mesenteric lymph nodes: no major differences
  tumor infiltration of CD3^+ T cells (FACS): increased infiltration
  tumor infiltration of activated effector memory CD8^+ T cells (FACS): increased infiltration
[2]; Exe-9-treated group vs untreated, immunohistochemistry
  intratumoral infiltration of CD3^+ T cells (pathological examination): significant intratumoral infiltration
Islet allografts; [3]
  effect of Exe-9 on the beneficial effects of Exe-4 (islet allograft survival): partly abolished
Islet allografts; islet allograft at day 14, co-administration of Exe-9 with Exe-4
  graft infiltration (Hematoxylin and eosin staining): restored the graft infiltration
Islet allografts; [4]
  CD8^+ effector cell number: restored CD8^+ effector cell number
  Tregs: did not affect Tregs
